Laboratory results as given in ChEMBL document CHEMBL3044536, “The synthesis, anti-inflammatory, and anti-microbial activity evaluation of new series of 4-(3-arylureido)phenyl-1,4-dihydropyridine urea derivatives” (2013).
In brackets after ≈: the same amount, converted by molar mass. Activity calls are given as the source filed them. The rule behind the calls is not given here.

Columns and labels:
THP-1 [1] = assay: Anti-inflammatory activity in Homo sapiens (human) THP1 cells assessed as inhibition of LPS-induced IL6 production at 10 uM incubated for 30 min prior to LPS-challenge measured after 24 hr by ELISA; type: functional
THP-1 [2] = assay: Anti-inflammatory activity in Homo sapiens (human) THP1 cells assessed as inhibition of LPS-induced TNFalpha production at 10 uM incubated for 30 min prior to LPS-challenge measured after 24 hr by ELISA; type: functional
Aspergillus flavus [3] = assay: Antifungal activity against Aspergillus flavus relative to miconazole; type: functional
Fusarium solani [4] = assay: Antifungal activity against Fusarium solani relative to miconazole; type: functional
Aspergillus niger [5] = assay: Antifungal activity against Aspergillus niger relative to miconazole; type: functional
Candida albicans [6] = assay: Antifungal activity against Candida albicans relative to miconazole; type: functional
Aspergillus flavus [7] = assay: Antifungal activity against Aspergillus flavus; type: functional
Fusarium solani [8] = assay: Antifungal activity against Fusarium solani; type: functional
Aspergillus niger [9] = assay: Antifungal activity against Aspergillus niger; type: functional
Candida albicans [10] = assay: Antifungal activity against Candida albicans; type: functional
Salmonella typhimurium [11] = assay: Antibacterial activity against Salmonella enterica subsp. enterica serovar Typhimurium; type: functional
Escherichia coli [12] = assay: Antibacterial activity against Escherichia coli; type: functional
Bacillus subtilis [13] = assay: Antibacterial activity against Bacillus subtilis; type: functional
Staphylococcus aureus [14] = assay: Antibacterial activity against Staphylococcus aureus; type: functional
THP-1 [15] = assay: Anti-inflammatory activity in Homo sapiens (human) THP1 cells assessed as inhibition of LPS-induced IL6 production at 1 uM incubated for 30 min prior to LPS-challenge measured after 24 hr by ELISA; type: functional
THP-1 [16] = assay: Anti-inflammatory activity in Homo sapiens (human) THP1 cells assessed as inhibition of LPS-induced TNFalpha production at 1 uM incubated for 30 min prior to LPS-challenge measured after 24 hr by ELISA; type: functional
Aspergillus niger [17] = assay: Antifungal activity against Aspergillus niger up to 200 ug/ml; type: functional, organism-based
Candida albicans [18] = assay: Antifungal activity against Candida albicans up to 200 ug/ml; type: functional, organism-based
Bacillus subtilis [19] = assay: Antibacterial activity against Bacillus subtilis up to 200 ug/ml; type: functional, organism-based
Aspergillus flavus [20] = assay: Antifungal activity against Aspergillus flavus up to 200 ug/ml; type: functional, organism-based
Staphylococcus aureus [21] = assay: Antibacterial activity against Staphylococcus aureus up to 200 ug/ml; type: functional, organism-based
Fusarium solani [22] = assay: Antifungal activity against Fusarium solani up to 200 ug/ml; type: functional, organism-based
Escherichia coli [23] = assay: Ratio of ciprofloxacin MIC to compound MIC for Escherichia coli; type: functional
Staphylococcus aureus [24] = assay: Ratio of ciprofloxacin MIC to compound MIC for Staphylococcus aureus; type: functional
Bacillus subtilis [25] = assay: Ratio of ciprofloxacin MIC to compound MIC for Bacillus subtilis; type: functional
Salmonella typhimurium [26] = assay: Ratio of ciprofloxacin MIC to compound MIC for Salmonella enterica subsp. enterica serovar Typhimurium; type: functional

| SMILES | inhibition at 10 µM (THP-1 [1]) [%] | inhibition at 10 µM (THP-1 [2]) [%] | MIC (Aspergillus flavus [7]) [µg/mL] | MIC (Fusarium solani [8]) [µg/mL] | MIC (Aspergillus niger [9]) [µg/mL] | MIC (Candida albicans [10]) [µg/mL] | MIC (Salmonella typhimurium [11]) [µg/mL] | MIC (Escherichia coli [12]) [µg/mL] | MIC (Bacillus subtilis [13]) [µg/mL] | MIC (Staphylococcus aureus [14]) [µg/mL] | further results |
| --- | --- | --- | --- | --- | --- | --- | --- | --- | --- | --- | --- |
| CCOC(=O)C1=C(C)NC(C)=C(C(=O)OCC)C1c1ccc(NC(=O)Nc2cc(Cl)ccc2Cl)cc1 | 51 | 36 | 20 (≈ 37.6 µM) | 10 (≈ 18.8 µM) | 30 (≈ 56.3 µM) | 10 (≈ 18.8 µM) | 15 (≈ 28.2 µM) | 15 (≈ 28.2 µM) | 25 (≈ 47 µM) | 15 (≈ 28.2 µM) | Activity (Aspergillus flavus [3]): >50%; Activity (Fusarium solani [4]): >50%; Activity (Aspergillus niger [5]): >50%; Activity (Candida albicans [6]): >50% |
| C[C@@H]1C[C@H]2[C@@H]3CCC4=CC(=O)C=C[C@]4(C)[C@@]3(F)[C@@H](O)C[C@]2(C)[C@@]1(O)C(=O)CO [DEXAMETHASONE] |  |  |  |  |  |  |  |  |  |  | inhibition at 1 µM (THP-1 [15]): 80%; inhibition at 1 µM (THP-1 [16]): 71% |
| CCOC(=O)C1=C(C)NC(C)=C(C(=O)OCC)C1c1ccc(NC(=O)Nc2ccc(Cl)cc2)cc1 | 18 | 0 | 20 (≈ 40.2 µM) | 20 (≈ 40.2 µM) | 20 (≈ 40.2 µM) | 30 (≈ 60.2 µM) | 35 (≈ 70.3 µM) | 20 (≈ 40.2 µM) | 80 (≈ 161 µM) | 65 (≈ 131 µM) |  |
| O=C(O)c1cn(C2CC2)c2cc(N3CCNCC3)c(F)cc2c1=O [CIPROFLOXACIN] |  |  |  |  |  |  | 25 (≈ 75.4 µM) | 20 (≈ 60.4 µM) | 25 (≈ 75.4 µM) | 20 (≈ 60.4 µM) |  |
| CCOC(=O)C1=C(C)NC(C)=C(C(=O)OCC)C1c1ccc(NC(=O)Nc2ccc(F)cc2)cc1 | 68 | 42 | 85 (≈ 177 µM) | 85 (≈ 177 µM) | 45 (≈ 93.5 µM) | 65 (≈ 135 µM) | 65 (≈ 135 µM) | 65 (≈ 135 µM) | 80 (≈ 166 µM) | 40 (≈ 83.1 µM) |  |
| CCOC(=O)C1=C(C)NC(C)=C(C(=O)OCC)C1c1ccc([N+](=O)[O-])cc1 | 0 | 0 |  | 90 (≈ 240 µM) |  |  | 90 (≈ 240 µM) | 90 (≈ 240 µM) |  | 90 (≈ 240 µM) | Activity (Aspergillus niger [17]): inactive; Activity (Candida albicans [18]): inactive; Activity (Bacillus subtilis [19]): inactive; Activity (Aspergillus flavus [20]): inactive |
| CCOC(=O)C1=C(C)NC(C)=C(C(=O)OCC)C1c1ccc(NC(=O)Nc2cc(F)ccc2F)cc1 | 96 | 78 |  |  | 90 (≈ 180 µM) | 85 (≈ 170 µM) | 90 (≈ 180 µM) | 70 (≈ 140 µM) |  |  | Activity (Bacillus subtilis [19]): inactive; Activity (Staphylococcus aureus [21]): inactive; Activity (Aspergillus flavus [20]): inactive; Activity (Fusarium solani [22]): inactive |
| Clc1ccc(COC(Cn2ccnc2)c2ccc(Cl)cc2Cl)c(Cl)c1 (stereo unspecified) [MICONAZOLE] |  |  | 20 (≈ 48.1 µM) | 15 (≈ 36 µM) | 20 (≈ 48.1 µM) | 25 (≈ 60.1 µM) |  |  |  |  |  |
| CCOC(=O)C1=C(C)NC(C)=C(C(=O)OCC)C1c1ccc(NC(=O)Nc2ccc(F)cc2F)cc1 | 54 | 28 | 35 (≈ 70.1 µM) | 20 (≈ 40 µM) | 20 (≈ 40 µM) | 35 (≈ 70.1 µM) | 25 (≈ 50 µM) | 25 (≈ 50 µM) | 50 (≈ 100 µM) | 45 (≈ 90.1 µM) | Ratio (Escherichia coli [23]): 2; Ratio (Staphylococcus aureus [24]): 2; Ratio (Bacillus subtilis [25]): 2; Ratio (Salmonella typhimurium [26]): 2 |
| CCOC(=O)C1=C(C)NC(C)=C(C(=O)OCC)C1c1ccc(N)cc1 | 0 | 0 | 90 (≈ 261 µM) | 90 (≈ 261 µM) |  | 90 (≈ 261 µM) | 45 (≈ 131 µM) | 40 (≈ 116 µM) | 85 (≈ 247 µM) | 60 (≈ 174 µM) | Activity (Aspergillus niger [17]): inactive |
| CCOC(=O)C1=C(C)NC(C)=C(C(=O)OCC)C1c1ccc(NC(=O)Nc2cc(C(F)(F)F)ccc2Cl)cc1 | 12 | 0 | 90 (≈ 159 µM) | 90 (≈ 159 µM) | 45 (≈ 79.5 µM) | 65 (≈ 115 µM) | 90 (≈ 159 µM) | 65 (≈ 115 µM) |  | 80 (≈ 141 µM) | Activity (Bacillus subtilis [19]): inactive |
| CCOC(=O)C1=C(C)NC(C)=C(C(=O)OCC)C1c1ccc(NC(=O)Nc2ccc(C#N)cc2)cc1 | 8 | 0 | 20 (≈ 40.9 µM) | 25 (≈ 51.2 µM) | 10 (≈ 20.5 µM) | 20 (≈ 40.9 µM) | 10 (≈ 20.5 µM) | 15 (≈ 30.7 µM) | 10 (≈ 20.5 µM) | 10 (≈ 20.5 µM) | Activity (Aspergillus flavus [3]): >50%; Activity (Fusarium solani [4]): >50%; Activity (Aspergillus niger [5]): >50%; Activity (Candida albicans [6]): >50%; Ratio (Escherichia coli [23]): 2; Ratio (Staphylococcus aureus [24]): 2; Ratio (Bacillus subtilis [25]): 2; Ratio (Salmonella typhimurium [26]): 2 |
| CCOC(=O)C1=C(C)NC(C)=C(C(=O)OCC)C1c1ccc(NC(=O)Nc2ccc(Cl)cc2C(F)(F)F)cc1 | 91 | 83 | 80 (≈ 141 µM) | 60 (≈ 106 µM) | 85 (≈ 150 µM) | 50 (≈ 88.3 µM) | 60 (≈ 106 µM) | 45 (≈ 79.5 µM) | 70 (≈ 124 µM) | 55 (≈ 97.2 µM) |  |
| CCOC(=O)C1=C(C)NC(C)=C(C(=O)OCC)C1c1ccc(NC(=O)Nc2ccc(Cl)cc2Cl)cc1 | 24 | 11 | 20 (≈ 37.6 µM) | 25 (≈ 47 µM) | 10 (≈ 18.8 µM) | 15 (≈ 28.2 µM) | 20 (≈ 37.6 µM) | 10 (≈ 18.8 µM) | 35 (≈ 65.7 µM) | 20 (≈ 37.6 µM) |  |
| CCOC(=O)C1=C(C)NC(C)=C(C(=O)OCC)C1c1ccc(NC(=O)Nc2ccc(C(F)(F)F)cc2)cc1 | 86 | 74 | 70 (≈ 132 µM) | 90 (≈ 169 µM) | 55 (≈ 103 µM) | 45 (≈ 84.7 µM) | 90 (≈ 169 µM) | 90 (≈ 169 µM) | 85 (≈ 160 µM) | 60 (≈ 113 µM) |  |
